The subject of the assay is endogenous target monocytes in human PBMC. Nature of the assay: PBMC ex vivo monocyte depletion flow cytometry assay (Example 200). Type of assay: cell-based. As to conditions: with anti-cotinine antibody (SEQ ID NO: 11/12), 18-24 hours, EC50 in molar, read-out: Ex Vivo Depletion Assay pEC50 (converted). As to the method: A human PBMC (peripheral blood mononuclear cells) monocyte depletion flow cytometry assay was developed to screen compounds in a 384-well plate format. This assay incorporated endogenous natural killer cells to deplete endogenous target monocytes.
To screen compounds in the human PBMC monocyte depletion flow cytometry assay, 11-point dose-response curves were made from 1 mM stocks in neat DMSO by serially diluting an ARM compound of Formula (I) four-fold into a 384-well plate row-wise. These serially diluted compounds were then stamped into a flat bottom polypropylene 384-well plate (Greiner Bio-One) at 100 nL/well. Fifty microliters of 30 μg/mL anti-cotinine antibody having a heavy chain sequence of SEQ ID NO: 11 and a light chain sequence of SEQ ID NO: 12 (rabbit variable region with human IgG1 Fc domain containing a DE mutation (S239D/1332E)) that had been diluted in assay medium (RPMI 1640 (Gibco) containing 10% fetal bovine serum (Gibco), 1% Glutamax (Gibco) and 1% sodium pyruvate (Corning) was added to the wells of the plate. The plate was centrifuged for 1 min at 500 rpm (revolutions per minute) and then shaken for 5 min at room temperature. The plate was incubated for 15 minutes at 37° C./5% CO2.
Frozen PBMC cells (HemaCare BioResearch) were thawed and centrifuged at 1,200 rpm for 4 minutes. The cells were diluted to a cell density of 2×10^6 cells/mL in assay medium. Fifty microliters of the diluted cells were added to the wells of the plate. The plate was centrifuged for 1 min at 500 rpm and incubated for 18-24 hours at 37° C./5% CO2.
After 18-24 hours incubation, 2 μL of 6.25 μg human FC block (BD Pharmingen) that was diluted in assay medium was added to the wells of the plate. The plate was centrifuged for 1 minute at 500 rpm and then incubated at room temperature for 15 minutes. Five microliters of 750 nM Helix NP NIR (Biolegend) that had been diluted in assay medium was added to the wells of the plate. Nine microliters of antibody cocktail containing 1/5 diluted fluorescein isothiocyanate (FITC) labeled anti-CD45 antibody (Beckman Coulter), PC7 labeled anti-CD14 antibody (Beckman Coulter) and phyocoerythrin (PE) anti-CD4 antibody (Beckman Coulter) was then added to the wells of the plate. The plate was centrifuged for 1 min at 500 rpm and incubated for 30 minutes at 4-8° C. Samples from the plate were run on BD FACS Canto II flow cytometer and data was analyzed using FlowJo software.
ARMs compounds of Formula (I) of the invention were tested for the ability to deplete monocytes in the above assay in one or more experimental runs and the results are shown in Table 3 below. Potency of the compounds of the invention is reported as a pEC50 value. The pEC50 value is the negative log of the EC50 value, wherein the EC50 value is the half maximal effective concentration measured in molar (M). For compounds tested in more than one experimental run, the pEC50 value is reported as an average or as the individual values measured
A general note: In flow cytometry, cells or beads pass a laser one at a time.
In the case of `CC(C)N(C)[C@@H]1CC[C@H](N2CC[C@H](Nc3ncnc4ccc(C(F)(F)F)cc34)C2=O)[C@H](NC(=O)C2CCC3(CC2)CCN(CCOCCOCCNC(=O)[C@H]2CC(=O)N(C)[C@@H]2c2cccnc2)CC3)C1` [Example 93, N-((1R,2S,5R)-5-(Isopropyl(methyl)amino)-2-((S)-2-oxo-3-((6-(trifluoromethyl)quinazolin-4-yl)amino)pyrrolidin-1-yl)cyclohexyl)-3-(2-(2-(2-((2S,3S)-1-methyl-5-oxo-2-(pyridin-3-yl)pyrrolidine-3-carboxamido)ethoxy)ethoxy)ethyl)-3-azaspiro [5.5]undecane-9-carboxamide], the EC50 was 126 nM.

`CC(C)N(C)[C@@H]1CC[C@H](N2CC[C@H](Nc3ncnc4ccc(C(F)(F)F)cc34)C2=O)[C@H](NC(=O)[C@H]2CC[C@@H](NC(=O)C3CCC4(CC3)CCN(C(=O)[C@H]3CC(=O)N(C)[C@@H]3c3cccnc3)CC4)CC2)C1` [Example 95, N-((1S,4R)-4-(((1R,2S,5R)-5-(Isopropyl(methyl)amino)-2-((S)-2-oxo-3-((6-(trifluoromethyl)quinazolin-4-yl)amino)pyrrolidin-1-yl)cyclohexyl)carbamoyl)cyclohexyl)-3-((2S,3S)-1-methyl-5-oxo-2-(pyridin-3-yl)pyrrolidine-3-carbonyl)-3-azaspiro[5.5]undecane-9-carboxamide]: the EC50 is 631 nM.

For the compound `CC(C)N(C)[C@@H]1CC[C@H](N2CC[C@H](Nc3ncnc4ccc(C(F)(F)F)cc34)C2=O)[C@H](NC(=O)[C@H]2CC[C@H](N3CCN(C(=O)CCOCCOCCNC(=O)[C@H]4CC(=O)N(C)[C@@H]4c4cccnc4)CC3)CC2)C1` [Example 96, (2S,3S)-N-(2-(2-(3-(4-((1R,4r)-4-(((1R,2S,5R)-5-(Isopropyl(methyl)amino)-2-((S)-2-oxo-3-((6-(trifluoromethyl)quinazolin-4-yl)amino)pyrrolidin-1-yl)cyclohexyl)carbamoyl)cyclohexyl)piperazin-1-yl)-3-oxopropoxy)ethoxy)ethyl)-1-methyl-5-oxo-2-(pyridin-3-yl)pyrrolidine-3-carboxamide], the EC50 is 1 nM.

For `CC(C)N(C)[C@@H]1CC[C@H](N2CC[C@H](Nc3ncnc4ccc(C(F)(F)F)cc34)C2=O)[C@H](NC(=O)[C@H]2CC[C@H](N3CCN(C4CC(CCNC(=O)[C@H]5CC(=O)N(C)[C@@H]5c5cccnc5)C4)CC3)CC2)C1` (stereo partly drawn) [Example 97, (2S,3S)-N-(2-(3-(4-((1R,4S)-4-(((1R,2S,5R)-5-(Isopropyl(methyl)amino)-2-((S)-2-oxo-3-((6-(trifluoromethyl)quinazolin-4-yl)amino)pyrrolidin-1-yl)cyclohexyl)carbamoyl)cyclohexyl)piperazin-1-yl)cyclobutyl)ethyl)-1-methyl-5-oxo-2-(pyridin-3-yl)pyrrolidine-3-carboxamide], the EC50 is 0.0631 nM.

For the compound `CC(C)N(C)[C@@H]1CC[C@H](N2CC[C@H](Nc3ncnc4ccc(C(F)(F)F)cc34)C2=O)[C@H](NC(=O)[C@H]2CC[C@@H](NC(=O)CCOCCNC(=O)CCOCCCNC(=O)[C@H]3CC(=O)N(C)[C@@H]3c3cccnc3)CC2)C1` [Example 101, (2S,3S)-N-(3-(3-((2-(3-(((1S,4s)-4-(((1R,2S,5R)-5-(Isopropyl(methyl)amino)-2-((S)-2-oxo-3-((6-(trifluoromethyl)quinazolin-4-yl)amino)pyrrolidin-1-yl)cyclohexyl)carbamoyl)cyclohexyl)amino)-3-oxopropoxy)ethyl)amino)-3-oxopropoxy)propyl)-1-methyl-5-oxo-2-(pyridin-3-yl)pyrrolidine-3-carboxamide], the EC50 was 0.631 nM.

The values above are taken from patent US12521393B2, “Cytotoxicity targeting chimeras for CCR2-expressing cells” (GLAXOSMITHKLINE INTELLECTUAL PROPERTY DEVELOPMENT LIMITED, priority 2021, dated 2026).
